Experimental data reported in patent US20130344026A1, “Dimeric Smac Mimetics” (priority 2009, published 2013).
Read-outs that look alike come from different tables or passages of the source.

Tested on: HCC461
Assay: cell viability assay in HCC461, compound alone
Format: cell-based
[1] = HCC461, HCC461, Tables 15-18, read-out: IC50 (uM) in cell viability assay in HCC461
[2] = HCC461, HCC461 cells, compound alone, read-out: IC50 (uM) in cell viability assay in HCC461
[3] = HCC461, HCC461, Tables 6-9, read-out: IC50 (μM) in cell viability assay in HCC461

IC50 [2] [µM]	Structure (SMILES)	other results
0.02	CN[C@@H](C)C(=O)N[C@H](C(=O)N1C[C@@H](NC(=O)c2cc(N)cc(C(=O)N[C@H]3C[C@@H](C(=O)NC4c5ccccc5-c5ccccc54)N(C(=O)[C@@H](NC(=O)[C@H](C)NC)C(C)(C)C)C3)c2)C[C@H]1C(=O)NC1c2ccccc2-c2ccccc21)C(C)(C)C [Compound P3-61]	–
0.002	CN[C@@H](C)C(=O)N[C@H](C(=O)N1C[C@@H](NC(=O)[C@H]2CC[C@H](C(=O)N[C@H]3C[C@@H](C(=O)N[C@@H]4CCCc5ccccc54)N(C(=O)[C@@H](NC(=O)[C@H](C)NC)C(C)(C)C)C3)CC2)C[C@H]1C(=O)N[C@@H]1CCCc2ccccc21)C(C)(C)C [Compound P3-31]	–
0.02	CN[C@@H](C)C(=O)N[C@H](C(=O)N1C[C@@H](NC(=O)c2ccc(C(=O)N[C@H]3C[C@@H](C(=O)NC4c5ccccc5-c5ccccc54)N(C(=O)[C@@H](NC(=O)[C@H](C)NC)C(C)(C)C)C3)cc2)C[C@H]1C(=O)NC1c2ccccc2-c2ccccc21)C(C)(C)C [Compound P3-2]	–
0.048	CN[C@@H](C)C(=O)N[C@H](C(=O)N1C[C@@H](NC(=O)CNCC(=O)N[C@H]2C[C@@H](C(=O)N[C@@H]3CCCc4ccccc43)N(C(=O)[C@@H](NC(=O)[C@H](C)NC)C(C)(C)C)C2)C[C@H]1C(=O)N[C@@H]1CCCc2ccccc21)C(C)(C)C [Compound P3-35]	–
0.073	CN[C@@H](CO)C(=O)N[C@H](C(=O)N1C[C@@H](NC(=O)c2cccc(C(=O)N[C@H]3C[C@@H](C(=O)N[C@H](C)c4ccccc4)N(C(=O)[C@@H](NC(=O)[C@H](CO)NC)C(C)C)C3)c2)C[C@H]1C(=O)N[C@H](C)c1ccccc1)C(C)C [Compound P3-89]	–

Continued, molecule first:

Structure (SMILES)	IC50 [2] [µM]	other results
CN[C@@H](C)C(=O)N[C@H](C(=O)N1CCC[C@H]1C(=O)N[C@H](CNC(=O)CCCC(=O)NC[C@@H](NC(=O)[C@@H]1CCCN1C(=O)[C@@H](NC(=O)[C@H](C)NC)C(C)(C)C)c1ccccc1)c1ccccc1)C(C)(C)C [Compound P4-14]	–	IC50 [1]: 0.093 µM
CN[C@@H](C)C(=O)N[C@H](C(=O)N[C@@H](CCCCCC[C@H](NC(=O)[C@@H](NC(=O)[C@H](C)NC)C(C)(C)C)C(=O)N[C@@H]1CCCc2ccccc21)C(=O)N[C@@H]1CCCc2ccccc21)C(C)(C)C [Compound P3-65]	0.002	–
CN[C@@H](C)C(=O)N[C@H](C(=O)N1CCC[C@H]1C(=O)N[C@H](CNC(=O)C1CCCCC1C(=O)NC[C@@H](NC(=O)[C@@H]1CCCN1C(=O)[C@@H](NC(=O)[C@H](C)NC)C(C)(C)C)C1CCCCC1)C1CCCCC1)C(C)(C)C (single isomer, unassigned) [Compound P4-2]	–	IC50 (HCC461, Tables 15-18, read-out: IC50 (uM) in cell viability assay in HCC461): 0.12 µM
CN[C@@H](C)C(=O)N[C@@H](CC#CC#CC[C@H](NC(=O)[C@H](C)NC)C(=O)N1C[C@@H](NS(=O)(=O)c2ccccc2)C[C@H]1C(=O)N[C@@H]1CCCc2ccccc21)C(=O)N1C[C@@H](NS(=O)(=O)c2ccccc2)C[C@H]1C(=O)N[C@@H]1CCCc2ccccc21 [Compound P2-11]	–	IC50 [1]: 0.171 µM
CN[C@@H](C)C(=O)N[C@H](C(=O)N1C[C@@H](NC(=O)c2cncc(C(=O)N[C@H]3C[C@@H](C(=O)N[C@@H]4CCCc5ccccc54)N(C(=O)[C@@H](NC(=O)[C@H](C)NC)C(C)(C)C)C3)c2)C[C@H]1C(=O)N[C@@H]1CCCc2ccccc21)C(C)(C)C [Compound P3-11]	0.003	–
CN[C@@H](C)C(=O)N[C@H](C(=O)N1CCC[C@H]1C(=O)N[C@H](CNC(=O)c1cccc(C(=O)NC[C@@H](NC(=O)[C@@H]2CCCN2C(=O)[C@@H](NC(=O)[C@H](C)NC)C2CCCCC2)C2CCCCC2)c1)C1CCCCC1)C1CCCCC1 [Compound P4-16]	–	IC50 [1]: 0.13 µM
CN[C@@H](C)C(=O)NC(C(=O)N1C[C@@H](NC(=O)c2cccc(C(=O)NCCCC[C@H](NC(=O)C(NC(C)[C@H](C)NC)C(C)(C)C)C(=O)N3CCCCC3)c2)C[C@H]1C(=O)N[C@@H]1CCCc2ccccc21)C(C)(C)C (stereo partly shown) [Compound 152]	–	IC50 [3]: 0.447 µM
CN[C@@H](C)C(=O)N[C@H](C(=O)N1C[C@@H](NC(=O)c2cccc(C(=O)NCC[C@@H](NC(=O)[C@H](NC(=O)[C@@H](C)NC)C(C)C)C(=O)N[C@@H](C)C(C)C)c2)C[C@H]1C(=O)N[C@@H]1CCCc2ccccc21)C(C)(C)C [Compound 138]	–	IC50 [3]: > 30 µM
